Values after ≈ are worked out from the molar mass of the structure shown. Active and inactive are the calls of the source. The calls are words filed in the database; no cut-off is given here.
Columns and labels:
[1] = tested on: Staphylococcus aureus; assay: Antibacterial activity against Staphylococcus aureus D83N; assay type: functional
[2] = molecular target: DNA gyrase (Staphylococcus aureus, UniProt P0A0K8+P20831); assay: Inhibition of Staphylococcus aureus DNA gyrase using relaxed pBR322 DNA as substrate incubated for 30 mins by ethidium bromide staining based agarose gel electrophoresis method; assay type: protein-complex assay
[3] = molecular target: Topoisomerase IV (Staphylococcus aureus, UniProt P0C1S7+P0C1U9); assay: Inhibition of Staphylococcus aureus topoisomerase-IV assessed as reduction in decatenation using kinetoplast DNA as substrate incubated for 20 mins by ethidium bromide staining based agarose gel electrophoresis method; assay type: protein-complex assay
[4] = molecular target: DNA gyrase (Escherichia coli, UniProt P0AES4+P0AES6); assay: Inhibition of Escherichia coli DNA gyrase using relaxed pBR322 DNA as substrate incubated at 37 degreeC for 30 to 45 mins followed by incubation at 75 degreeC for 10 mins by ethidium bromide staining based agarose gel electrophoresis method; assay type: protein-complex assay
[5] = molecular target: T1, Topoisomerase IV (Staphylococcus aureus) (UniProt P0C1U9+P0C1S7); assay: Inhibition of Staphylococcus aureus DNA topoisomerase IV assessed as accumulation of single strand breaks incubated at 37 degreeC for 30 mins followed by incubation at 45 degreeC for 30 mins by ethidium bromide based agarose gel electrophoresis; assay type: protein-complex assay; settings: time 60.0 min
[6] = molecular target: T1, Topoisomerase IV (Staphylococcus aureus); assay: Inhibition of Staphylococcus aureus DNA topoisomerase IV assessed as accumulation of double strand breaks incubated at 37 degreeC for 30 mins followed by incubation at 45 degreeC for 30 mins by ethidium bromide based agarose gel electrophoresis; assay type: protein-complex assay; settings: time 60.0 min
[7] = molecular target: DNA gyrase (Staphylococcus aureus) (UniProt P0A0K8+P20831); assay: Inhibition of Staphylococcus aureus DNA gyrase assessed as accumulation of single strand breaks at 10 uM incubated at 37 degreeC for 30 mins followed by incubation at 45 degreeC for 30 mins by ethidium bromide based agarose gel electrophoresis; assay type: protein-complex assay; settings: time 60.0 min
[8] = tested on: Staphylococcus aureus; assay: Antibacterial activity against Staphylococcus aureus ATCC 29213; assay type: functional
[9] = tested on: Staphylococcus aureus; assay: Antibacterial activity against methicillin resistant Staphylococcus aureus USA300; assay type: functional
[10] = tested on: Salmonella typhimurium; assay: Antibacterial activity against efflux deficient Salmonella typhimurium 14028 deltatolC1::kan; assay type: functional, Salmonella enterica subsp. enterica serovar Typhimurium; settings: Salmonella enterica
[11] = tested on: Acinetobacter baumannii; assay: Antibacterial activity against Acinetobacter baumannii ATCC 19606; assay type: functional
[12] = tested on: Escherichia coli; assay: Antibacterial activity against Escherichia coli ATCC 25922; assay type: functional
[13] = tested on: Salmonella typhimurium; assay: Antibacterial activity against Salmonella typhimurium ATCC 14028; assay type: functional, Salmonella enterica subsp. enterica serovar Typhimurium; settings: Salmonella enterica

Structure (SMILES) | MIC [1] [µg/mL] | MIC [8] [µg/mL] | MIC [9] [µg/mL] | MIC [10] [µg/mL] | MIC [11] [µg/mL] | MIC [13] [µg/mL] | further results
COc1ccc2ncc(F)c(CCN3CCC(C(N)Cc4ccc(C)cc4)CC3)c2n1 (stereo not drawn) | 32 (≈ 75.7 µM) | – | – | – | – | – | IC50 [2]: 5.05 µM; IC50 [3]: 82.6 µM; IC50 [4]: > 400 µM; inhibition [5]: Active; inhibition [6]: < 1%; inhibition [7]: Active
COc1ccc2ncc(F)c(CCN3CCC(/C=C\c4ccc(C)cc4)CC3)c2n1 | 32 (≈ 78.9 µM) | 4 (≈ 9.86 µM) | 4 (≈ 9.86 µM) | 8 (≈ 19.7 µM) | – | – | –
COc1ccc2ncc(F)c(CCN3CCC(/C=C\c4ccc5c(c4)NC(=O)CO5)CC3)c2n1 | ≥ 64 | ≥ 64 | – | 16 (≈ 34.6 µM) | 32 (≈ 69.2 µM) | – | –
COc1ccc2ncc(F)c(CCN3CCC(C(=O)Cc4ccc5c(c4)OCCO5)CC3)c2n1 | 32 (≈ 68.7 µM) | 4 (≈ 8.59 µM) | 4 (≈ 8.59 µM) | ≥ 1 | 64 (≈ 137 µM) | – | MIC [12]: 64 µg/mL (≈ 137 µM)
COc1ccc2ncc(F)c(CCN3CCC(/C=C\c4ccc5c(c4)OCCO5)CC3)c2n1 | ≥ 16 | 8 (≈ 17.8 µM) | 8 (≈ 17.8 µM) | 4 (≈ 8.9 µM) | 64 (≈ 142 µM) | ≥ 64 | MIC [12]: ≥ 64 µg/mL
COc1ccc2ncc(F)c(CCN3CCC([C@@H](O)[C@H](O)c4ccc5c(c4)NC(=O)CO5)CC3)c2n1 | ≥ 32 | – | – | – | – | – | –
COc1ccc2ncc(F)c(CCN3CCC(/C=C/c4ccc5c(c4)NC(=O)CO5)CC3)c2n1 | 16 (≈ 34.6 µM) | 0.5 (≈ 1.08 µM) | ≤ 0.25 | 0.25 (≈ 0.541 µM) | 8 (≈ 17.3 µM) | 16 (≈ 34.6 µM) | –
COc1ccc2ncc(F)c(CCN3CCC([C@@H](O)[C@@H](O)c4ccc(C)cc4)CC3)c2n1 | – | 0.13 (≈ 0.296 µM) | 0.25 (≈ 0.569 µM) | – | – | – | –
COc1ccc2ncc(F)c(CCN3CCC([C@H](O)[C@H](O)c4ccc(C)cc4)CC3)c2n1 | – | – | 0.13 (≈ 0.296 µM) | – | – | – | IC50 [2]: 0.065 µM; IC50 [3]: 3.31 µM; IC50 [4]: 17.1 µM; inhibition [5]: Active; inhibition [6]: < 1%
COc1ccc2ncc(F)c(CCN3CCC(C(O)Cc4ccc(C)cc4)CC3)c2n1 (stereo not drawn) | 8 (≈ 18.9 µM) | – | 0.25 (≈ 0.59 µM) | 1 (≈ 2.36 µM) | – | – | IC50 [2]: 0.24 µM; IC50 [3]: 2.29 µM; IC50 [4]: 12.4 µM; inhibition [5]: Active; inhibition [6]: < 1%
COc1ccc2ncc(F)c(CCN3CCC(C(O)Cc4ccc5c(c4)OCC(=O)N5)CC3)c2n1 (stereo not drawn) | – | – | – | 0.125 (≈ 0.26 µM) | – | – | –
COc1ccc2ncc(F)c(CCN3CCC([C@@H](O)[C@H](O)c4ccc(C)cc4)CC3)c2n1 | – | – | 2 (≈ 4.55 µM) | 0.5 (≈ 1.14 µM) | – | – | –
COc1ccc2ncc(F)c(CCN3CCC(CCc4ccc(C)cc4)CC3)c2n1 | 4 (≈ 9.82 µM) | – | – | – | – | ≥ 64 | –
COc1ccc2ncc(F)c(CCN3CCC(C(O)Cc4ccc5c(c4)OCCO5)CC3)c2n1 (stereo not drawn) | 4 (≈ 8.56 µM) | – | – | – | – | – | –
COc1ccc2ncc(F)c(CCN3CCC(/C=C/c4ccc5c(c4)OCCO5)CC3)c2n1 | 2 (≈ 4.45 µM) | 0.25 (≈ 0.556 µM) | 0.5 (≈ 1.11 µM) | 0.125 (≈ 0.278 µM) | 8 (≈ 17.8 µM) | 64 (≈ 142 µM) | MIC [12]: 8 µg/mL (≈ 17.8 µM)
COc1ccc2ncc(F)c(CCN3CCC(C(N)Cc4ccc5c(c4)OCCO5)CC3)c2n1 (stereo not drawn) | ≥ 16 | – | – | – | – | – | –
COc1ccc2ncc(F)c(CCN3CCC([C@@H](O)[C@@H](O)c4ccc5c(c4)OCCO5)CC3)c2n1 | – | – | 0.03 (≈ 0.062 µM) | – | – | – | –
COc1ccc2ncc(F)c(CCN3CCC(C(=O)Cc4ccc5c(c4)NC(=O)CO5)CC3)c2n1 | – | ≤ 0.13 | – | – | 4 (≈ 8.36 µM) | 16 (≈ 33.4 µM) | MIC [12]: 2 µg/mL (≈ 4.18 µM)
COc1ccc2ncc(F)c(CCN3CCC([C@H](O)[C@@H](O)c4ccc(C)cc4)CC3)c2n1 | – | – | 2 (≈ 4.55 µM) | – | 32 (≈ 72.8 µM) | – | –
COc1ccc2ncc(F)c(CCN3CCC(/C=C/c4ccc(C)cc4)CC3)c2n1 | ≥ 32 | 0.25 (≈ 0.616 µM) | – | 0.5 (≈ 1.23 µM) | – | ≥ 64 | –
COc1ccc2ncc(F)c(CCN3CCC([C@@H](O)[C@H](O)c4ccc5c(c4)OCCO5)CC3)c2n1 | – | – | 1 (≈ 2.07 µM) | – | – | – | –
COc1ccc2ncc(F)c(CCN3CCC(NCc4ccc(C)cc4)CC3)c2n1 | 16 (≈ 39.2 µM) | ≤ 0.25 | ≤ 0.25 | 0.5 (≈ 1.22 µM) | 4 (≈ 9.79 µM) | 32 (≈ 78.3 µM) | MIC [12]: 4 µg/mL (≈ 9.79 µM); IC50 [2]: 0.004 µM; IC50 [3]: 0.69 µM; inhibition [5]: Active; inhibition [6]: < 1%; inhibition [7]: Active
COc1ccc2ncc(F)c(CCN3CCC([C@H](O)[C@H](O)c4ccc5c(c4)OCCO5)CC3)c2n1 | – | ≤ 0.13 | – | – | – | – | –
COc1ccc2ncc(F)c(CCN3CCC(CCc4ccc5c(c4)OCCO5)CC3)c2n1 | 8 (≈ 17.7 µM) | – | – | 0.25 (≈ 0.554 µM) | – | – | –
O=c1ccc2ncc(=O)n3c2n1C[C@H]3CN1CCC(NCc2cc3c(cn2)OCCC3)CC1 [GEPOTIDACIN] | 8 (≈ 17.8 µM) | – | – | 0.125 (≈ 0.279 µM) | 8 (≈ 17.8 µM) | 2 (≈ 4.46 µM) | MIC [12]: 1 µg/mL (≈ 2.23 µM)
COc1ccc2ncc(F)c(CCN3CCC([C@H](O)[C@@H](O)c4ccc5c(c4)NC(=O)CO5)CC3)c2n1 | – | – | – | 0.25 (≈ 0.503 µM) | – | – | –
